Data set [1] in a line: Determination of metabolic stability in vitro (calculation of hepatic in vivo blood clearance). Conditions: pH 7.4, human liver microsomes, calculated from half-life, read-out: calculated hepatic in vivo blood clearance (CL) (converted). It counts as in vitro ADME. The method, then:
Determination of Metabolic Stability In Vitro (Including Calculation of Hepatic In Vivo Blood Clearance (CL) and of Maximal Oral Bioavailability (Fmax))
The metabolic stability of test compounds in vitro was determined by incubating them at 1 μM with a suspension of human liver microsomes in 100 mM phosphate buffer, pH7.4 (NaH2PO4×H2O+Na2HPO4×2H2O) at a protein concentration of 0.5 mg/ml and at 37° C. The reaction was activated by adding a co-factor mix containing 1.2 mg NADP, 3 IU glucose-6-phosphate dehydrogenase, 14.6 mg glucose-6-phosphate and 4.9 mg MgCl2 in phosphate buffer, pH 7.4. Organic solvent in the incubations was limited to <0.2% dimethylsulfoxide (DMSO) and <1% methanol. During incubation, the microsomal suspensions were continuously shaken and aliquots were taken at 2, 8, 16, 30, 45 and 60 min, to which equal volumes of cold methanol were immediately added. Samples were freezed at −20° C. over night, subsequently centrifuged for 15 minutes at 3000 rpm and the supernatant was analyzed with an Agilent 1200 HPLC-system with LCMS/MS detection.
The half-life of a test compound was determined from the concentration-time plot. From the half-life the intrinsic clearances were calculated. Together with the additional parameters liver blood flow, specific liver weight and microsomal protein content the hepatic in vivo blood clearance (CL) and the maximal oral bioavailability (Fmax) were calculated for the different species. The following parameter values were used: Liver blood flow—1.3 l/h/kg human; specific liver weight—21 g/kg human; microsomal protein content—40 mg/g.
With the described assay only phase-I metabolism of microsomes is reflected, e.g. typically oxidoreductive reactions by cytochrome P450 enzymes and flavin mono-oxygenases (FMO) and hydrolytic reactions by esterases (esters and amides).

Data set [2] has as its target T1, wild-type human androgen receptor (Homo sapiens, UniProt P10275).
T1 construct: expressed in transfected cells
T1 sequence (P10275 1-920): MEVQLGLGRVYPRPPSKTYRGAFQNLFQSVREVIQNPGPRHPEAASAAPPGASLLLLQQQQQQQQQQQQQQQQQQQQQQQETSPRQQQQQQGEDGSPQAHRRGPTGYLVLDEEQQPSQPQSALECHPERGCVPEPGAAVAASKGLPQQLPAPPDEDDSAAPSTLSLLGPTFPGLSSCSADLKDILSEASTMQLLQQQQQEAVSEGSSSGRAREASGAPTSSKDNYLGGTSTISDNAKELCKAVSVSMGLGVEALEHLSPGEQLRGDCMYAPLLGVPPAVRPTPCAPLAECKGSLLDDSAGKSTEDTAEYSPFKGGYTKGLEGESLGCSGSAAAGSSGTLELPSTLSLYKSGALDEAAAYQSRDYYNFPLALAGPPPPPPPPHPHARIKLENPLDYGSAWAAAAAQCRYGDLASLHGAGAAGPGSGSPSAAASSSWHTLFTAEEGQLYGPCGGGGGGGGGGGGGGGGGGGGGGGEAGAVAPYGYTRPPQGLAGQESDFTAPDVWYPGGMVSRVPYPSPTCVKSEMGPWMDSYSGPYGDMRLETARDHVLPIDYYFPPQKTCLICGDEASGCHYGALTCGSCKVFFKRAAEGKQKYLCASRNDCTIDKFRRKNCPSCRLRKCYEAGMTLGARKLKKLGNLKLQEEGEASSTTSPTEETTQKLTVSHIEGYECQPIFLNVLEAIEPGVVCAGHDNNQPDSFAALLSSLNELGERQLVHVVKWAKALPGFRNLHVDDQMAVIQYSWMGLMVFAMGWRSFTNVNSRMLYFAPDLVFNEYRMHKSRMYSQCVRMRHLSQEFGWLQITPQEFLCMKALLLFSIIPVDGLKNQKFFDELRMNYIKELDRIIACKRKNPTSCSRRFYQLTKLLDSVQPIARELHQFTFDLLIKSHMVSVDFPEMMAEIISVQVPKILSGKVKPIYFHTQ
Put plainly: Cell-based transactivation assay for wild-type human androgen receptor (PC-3 cells, MMTV-luciferase reporter).

Data set [3] concerns the target T2, human androgen receptor W741L mutant (Homo sapiens, UniProt P10275, W742L).
T2 construct: expressed in transfected cells; host or cells: PC-3 cells, transient transfection with a pSG5-derived plasmid
T2 sequence (P10275 1-920 W742L): T1 sequence (P10275 1-920) with W742L
In words: Cell-based transactivation assay for human androgen receptor mutant W741L.
Protocol: (§1) Cell-Based Transactivation Assay for Human Androgen Receptor Mutant W741L or W741C
(§2) PC-3 cells (Kaighn et al., Invest. Urol. 17:16-23, 1979) were grown in 5% charcoal-stripped medium and seeded at a concentration of 10000 cells per well in a 96-well plate. They were transiently transfected with a pSG5-derived plasmid (#216201 from Stratagene, La Jolla, Calif., USA) coding for the human androgen receptor W741L or W741C mutant Mara et al., Cancer Research, 63: 149-153, 2003) and an MMTV-Luciferase reporter plasmid based on pGL4.14 14 (#E6691, Promega Corporation, Madison, Wis., USA). The compound to be tested was added at a concentration range varying from 1×10^−9 to 1×10 M together with 1×10^−10 R1881. After 24 h incubation at 37° C. in a 5% CO2 atmosphere, 100 μl of Steady Glo Lysis and Detection reagent (Steady Glo Luciferase assay system E2550 from Promega Corporation. Madison, Wis., USA) were added. Antagonistic activity was determined by measuring Luciferase activity in a Victor 3 Luminometer (PerkinElmer, Waltham, Mass., USA) using the Steady Glo Luciferase Assay (E2550, Promega). IC50 values were calculated for anti-androgenic activity.

Data set [4] addresses T3, human androgen receptor W741C mutant (Homo sapiens, UniProt P10275, W742C).
T3 construct: expressed in transfected cells; host or cells: PC-3 cells, transient transfection with a pSG5-derived plasmid
T3 sequence (P10275 1-920 W742C): T1 sequence (P10275 1-920) with W742C
In words: Cell-based transactivation assay for human androgen receptor mutant W741C.
Protocol: as §1, §2

A further data set concerns LNCaP cells. Put plainly: Proliferation assay with LNCaP cells. Conditions: Homo sapiens, 168 h, R1881 (1×10^−10) stimulated growth, day 7, read-out: inhibition IC50 (LNCaP). It counts as cell-based. The protocol: Proliferation Assay with LNCaP Cells
LNCaP cells (Horoszewicz et al., in “Models for Prostate Cancer” (ed. G. P. Murphy), Alan R. Liss, New York 1981, p. 115-132; Horoszewicz et al., Cancer Res. 43:1809-1818, 1983) were seeded at 2000 cells/well in 96-well plates in RPMI (F1235, Biochrom AG, Berlin, Germany) without phenol red supplemented with 5% charcoal-stripped serum. After 3 days, the cells were treated with R1881) (1×10^−10) and compound (day 0). Cell number was determined by Alamar Blue (DAL1100, Invitrogen, Life Technologies, Lohne, Germany) staining (2.5 h) at day 0 and day 7. Fluorescence was determined in Victor3 (Excitation 530 nm; emission 590 nm). Stimulated growth was defined as the signal measured at day 7 for cells treated only with R1881. Basal level was defined as the signal measured at day 7 for cells grown without R1881.

The test system of the next data set is VCaP cells. Put plainly: Proliferation assay with VCaP cells. It counts as cell-based. Conditions: Homo sapiens, 168 h, R1881 (1×10^−10) stimulated growth, day 7, read-out: Antiproliferative activity VCaP IC50. The protocol: Proliferation Assay with VCaP Cells
VCaP cells ((Korenchuk et al., In Vivo 15: 163-168, 2001)) were seeded at 16 000 cells/well in 96-well plates in DMEM (F0445, Biochrom AG, Berlin, Germany) with phenol red supplemented with 10% charcoal-stripped serum. After 1 day, the cells were treated with R1881 (1×10^−10) and compound (day 0). Cell number was determined by Alamar Blue (DAL1100, Invitrogen, Life Technologies, Lohne, Germany) staining (2.5 h) at day 0 and day 7. Fluorescence was determined in Victor3 (Excitation 530 nm; emission 590 nm). Stimulated growth was defined as the signal measured at day 7 for cells treated only with R1881. Basal level was defined as the signal measured at day 7 for cells grown without R1881.

These results are taken from US20120251551A1, “Substituted (Heteroarylmethyl)thiohydantoins” (BAYER PHARMA AKTIENGESELLSCHAFT, priority 2009, published 2012).

Positions count from the first letter of the chain named.

As for `CC1(C)C(=O)N(c2ccc(C#N)c(C(F)(F)F)c2)C(=S)N1Cc1cnc(-n2ccnc2)nc1` [Example 17, 4-(3-{[2-(1H-Imidazol-1-yl)pyrimidin-5-yl]methyl}-4,4-dimethyl-5-oxo-2-thioxoimidazolidin-1-yl)-2-(trifluoromethyl)benzonitrile], the CLhep predicted at 1 µM in data set [1] is 1.5 mL/min/kg. The EC50 in data set [2] was above 10000 nM. This molecule came in with an IC50 in data set [3] of 20.6 nM.

Regarding `Cc1cn(-c2ccc(CN3C(=S)N(c4ccc(C#N)c(C(F)(F)F)c4)C(=O)C3(C)C)cn2)cn1` [Example 19, 4-(4,4-Dimethyl-3-{[6-(4-methyl-1H-imidazol-1-yl)pyridin-3-yl]methyl}-5-oxo-2-thioxoimidazolidin-1-yl)-2-(trifluoromethyl)benzonitrile], the IC50 was found to be 52.9 nM in data set [4], 201 nM in data set [3] and 96 nM in the data set with LNCaP cells. Moreover, in data set [2], the EC50 was above 10000 nM.

For the molecule `Cn1nccc1-c1ccc(CN2C(=S)N(c3ccc(C#N)c(C(F)(F)F)c3)C(=O)C2(C)C)cn1` [Example 20, 4-(4,4-Dimethyl-3-{[6-(1-methyl-1H-pyrazol-5-yl)pyridin-3-yl]methyl}-5-oxo-2-thioxoimidazolidin-1-yl)-2-(trifluoromethyl)benzonitrile], the IC50 in data set [4] was determined as 99.9 nM; in data set [3] it was 233 nM; in the data set with LNCaP cells it was 46 nM. The same molecule registered an EC50 in data set [2] above 10000 nM.

With `Cc1nc(Cl)cn1-c1ccc(CN2C(=S)N(c3ccc(C#N)c(C(F)(F)F)c3)C(=O)C2(C)C)cn1` [Example 21, 4-(3-{[6-(4-Chloro-2-methyl-1H-imidazol-1-yl)pyridin-3-yl]methyl}-4,4-dimethyl-5-oxo-2-thioxoimidazolidin-1-yl)-2-(trifluoromethyl)benzonitrile], the CLhep predicted at 1 µM in data set [1] was 6.67 mL/min/kg. Further, in data set [2], the EC50 is above 10000 nM. The IC50 in data set [3] amounted to 296 nM.

For the molecule `CC1(C)C(=O)N(c2ccc(C#N)c(C(F)(F)F)c2)C(=S)N1Cc1ccc(-n2cnc(C(F)(F)F)c2)nc1` [Example 23, 4-[4,4-Dimethyl-5-oxo-2-thioxo-3-({6-[4-(trifluoromethyl)-1H-imidazol-1-yl]pyridin-3-yl}methyl)imidazolidin-1-yl]-2-(trifluoromethyl)benzonitrile], the IC50 stood at 148 nM in data set [4], 340 nM with VCaP cells, 83 nM in data set [3] and 160 nM in the data set on LNCaP cells. Also, the EC50 in data set [2] is above 10000 nM.

`CC1(C)C(=O)N(c2ccc(C#N)c(C(F)(F)F)c2)C(=S)N1Cc1ccc(-c2cccs2)nc1` [Example 24, 4-(4,4-Dimethyl-5-oxo-3-{[6-(thien-2-yl)pyridin-3-yl]methyl}-2-thioxoimidazolidin-1-yl)-2-(trifluoromethyl)benzonitrile]: the CLhep predicted at 1 µM in data set [1] was 6.67 mL/min/kg. Moreover, the EC50 in data set [2] was above 10000 nM. Moreover, in data set [3], half-maximal inhibition (IC50) was put at 202 nM.
